In paper PMC10141580, “Cyclic Dichalcogenides Extend the Reach of Bioreductive Prodrugs to Harness Thiol/Disulfide Oxidoreductases: Applications to seco-Duocarmycins Targeting the Thioredoxin System” (ACS Central Science, 2023):
Where two headings read alike, the source gives them in different places.

System: panel of 140 standard cancer cell lines
Experiment: ProliFiler-140 cancer cell line screen (CellTiterGlo, 72 h)
Type: cell-based
Procedure: Incubations were performed for 72 h before automated viability readout with CellTiterGlo (Figure 8).
End of Figure S11 (part 5 of 5): ProliFiler-140 cancer cell line screening for cytotoxicity of the prodrugs.
8-data-point dose response curves from CellTiter-Glo® viability readout.
ProliFiler-140 cell line panel part V

SMILES: COc1cccc2c1C(=O)c1c(O)c3c(c(O)c1C2=O)C[C@@](O)(C(=O)CO)C[C@@H]3O[C@H]1C[C@H](N)[C@H](O)[C@H](C)O1 [doxorubicin, reference compound]
- IC50 (A172 (Brain), listed as Dox, read-out: IC50 [M] (ProliFiler-140)): 9.4e-08 M
- IC50 (A375 (Skin), listed as Dox, read-out: IC50 [M] (ProliFiler-140)): 4.8e-08 M
- IC50 (A427 (Lung), listed as Dox, read-out: IC50 [M] (ProliFiler-140)): 6.56e-08 M
- IC50 (A431 (Skin), listed as Dox, read-out: IC50 [M] (ProliFiler-140)): 1.7e-07 M
- IC50 (A549 (Lung), listed as Dox, read-out: IC50 [M] (ProliFiler-140)): 3.11e-07 M
- IC50 (A2058 (Skin), listed as Dox, read-out: IC50 [M] (ProliFiler-140)): 3.73e-08 M
- IC50 (AsPC-1 (Pancreas), listed as Dox, read-out: IC50 [M] (ProliFiler-140)): 1.16e-06 M
- IC50 (BT-20 (Breast), listed as Dox, read-out: IC50 [M] (ProliFiler-140)): 2.35e-07 M
- IC50 (BxPC-3 (Pancreas), listed as Dox, read-out: IC50 [M] (ProliFiler-140)): 2.8e-07 M
- IC50 (COR-L279 (Lung), listed as Dox, read-out: IC50 [M] (ProliFiler-140)): 7.88e-08 M
- IC50 (COV434 (Ovary), listed as Dox, read-out: IC50 [M] (ProliFiler-140)): 6.97e-08 M
- IC50 (COV434, COV434 (Ovary), read-out: IC50 [M] (ProliFiler-140)): 7e-08 M
- IC50 (Caki-1 (Kidney), listed as Dox, read-out: IC50 [M] (ProliFiler-140)): 3.4e-07 M
- IC50 (Caki-2 (Kidney), listed as Dox, read-out: IC50 [M] (ProliFiler-140)): 1e-06 M
- IC50 (Calu-6 (Lung), listed as Dox, read-out: IC50 [M] (ProliFiler-140)): 7.7e-07 M
- IC50 (DU-145 (Prostate), listed as Dox, read-out: IC50 [M] (ProliFiler-140)): 1.52e-07 M
- IC50 (DV90 (Lung), listed as Dox, read-out: IC50 [M] (ProliFiler-140)): 1.95e-08 M
- IC50 (EFM-19 (Breast), listed as Dox, read-out: IC50 [M] (ProliFiler-140)): 4.73e-07 M
- IC50 (EFM-192A (Breast), listed as Dox, read-out: IC50 [M] (ProliFiler-140)): 7.35e-07 M
- IC50 (EFM-192A, EFM-192A (Breast), read-out: IC50 [M] (ProliFiler-140)): 7.3e-07 M
- IC50 (EFO-27 (Ovary), listed as Dox, read-out: IC50 [M] (ProliFiler-140)): 2.93e-07 M
- IC50 (H4 (Brain), listed as Dox, read-out: IC50 [M] (ProliFiler-140)): 8.2e-08 M
- IC50 (H4 (Brain), read-out: IC50 [M] (ProliFiler-140)): 8.18e-08 M
- IC50 (H1299 (Lung), listed as Dox, read-out: IC50 [M] (ProliFiler-140)): 2.2e-07 M
- IC50 (H2228 (Lung), listed as Dox, read-out: IC50 [M] (ProliFiler-140)): 5.7e-08 M
- IC50 (HCC202 (Breast), listed as Dox, read-out: IC50 [M] (ProliFiler-140)): 7.65e-07 M
- IC50 (HCC202, HCC202 (Breast), read-out: IC50 [M] (ProliFiler-140)): 7.6e-07 M
- IC50 (HCC827 (Lung), listed as Dox, read-out: IC50 [M] (ProliFiler-140)): 3.48e-07 M
- IC50 (HCC 1569 (Breast), listed as Dox, read-out: IC50 [M] (ProliFiler-140)): 7.01e-07 M
- IC50 (HCT-15 (Colon), listed as Dox, read-out: IC50 [M] (ProliFiler-140)): 6.4e-07 M
- IC50 (HEC-1-A (Endometrium), listed as Dox, read-out: IC50 [M] (ProliFiler-140)): 3.27e-07 M
- IC50 (HEC-1-B (Endometrium), listed as Dox, read-out: IC50 [M] (ProliFiler-140)): 2.37e-06 M
- IC50 (HL-60 (Blood), listed as Dox, read-out: IC50 [M] (ProliFiler-140)): 2.65e-08 M
- IC50 (HT-29 (Colon), listed as Dox, read-out: IC50 [M] (ProliFiler-140)): 3.69e-07 M
- IC50 (HeLa (Cervix), listed as Dox, read-out: IC50 [M] (ProliFiler-140)): 8e-08 M
- IC50 (Hep3B2.1-7 (Liver), listed as Dox, read-out: IC50 [M] (ProliFiler-140)): 5.32e-07 M
- IC50 (Hep3B2.1-7 (Liver), read-out: IC50 [M] (ProliFiler-140)): 5.3e-07 M
- IC50 (Homo sapiens, 786-0, 786-O (Kidney), read-out: IC50 [M] (ProliFiler-140)): 1.15e-07 M
- IC50 (Homo sapiens, 786-0, 786-O, read-out: IC50): 1.1e-07 M
- IC50 (Homo sapiens, A 172, A172 (Brain), read-out: IC50 [M] (ProliFiler-140)): 9.38e-08 M
- IC50 (Homo sapiens, A498, A498 (Kidney), read-out: IC50 [M] (ProliFiler-140)): 3.22e-07 M
- IC50 (Homo sapiens, A498, A498, read-out: IC50): 3.2e-07 M
- IC50 (Homo sapiens, A549, A549, read-out: IC50): 3.1e-07 M
- IC50 (Homo sapiens, A2058, A2058 (Skin), read-out: IC50 [M] (ProliFiler-140)): 3.7e-08 M
- IC50 (Homo sapiens, A2780, A2780 (Ovary), read-out: IC50 [M] (ProliFiler-140)): 1.8e-08 M
- IC50 (Homo sapiens, A-375, A375 (Skin), read-out: IC50 [M] (ProliFiler-140)): 4.76e-08 M
- IC50 (Homo sapiens, A-427, A427 (Lung), read-out: IC50 [M] (ProliFiler-140)): 6.6e-08 M
- IC50 (Homo sapiens, A-431, A431 (Skin), read-out: IC50 [M] (ProliFiler-140)): 1.74e-07 M
- IC50 (Homo sapiens, ASPC1, AsPC-1 (Pancreas), read-out: IC50 [M] (ProliFiler-140)): 1.2e-06 M
- IC50 (Homo sapiens, BT-20, BT-20 (Breast), read-out: IC50 [M] (ProliFiler-140)): 2.3e-07 M
- IC50 (Homo sapiens, BXPC-3, BxPC-3 (Pancreas), read-out: IC50 [M] (ProliFiler-140)): 2.78e-07 M
- IC50 (Homo sapiens, CAKI-1, Caki-1 (Kidney), read-out: IC50 [M] (ProliFiler-140)): 3.39e-07 M
- IC50 (Homo sapiens, CAKI-2, Caki-2 (Kidney), read-out: IC50 [M] (ProliFiler-140)): 1.03e-06 M
- IC50 (Homo sapiens, COR-L279, COR-L279 (Lung), read-out: IC50 [M] (ProliFiler-140)): 7.9e-08 M
- IC50 (Homo sapiens, Calu-6, Calu-6 (Lung), read-out: IC50 [M] (ProliFiler-140)): 7.69e-07 M
- IC50 (Homo sapiens, DLD-1, DLD-1 (Colon), read-out: IC50 [M] (ProliFiler-140)): 1.37e-07 M
- IC50 (Homo sapiens, DU-145, DU-145 (Prostate), read-out: IC50 [M] (ProliFiler-140)): 1.5e-07 M
- IC50 (Homo sapiens, DU-145, DU-145, read-out: IC50): 1.5e-07 M
